Experimental data taken from PMC7143284, “A Phenotarget Approach for Identifying an Alkaloid Interacting with the Tuberculosis Protein Rv1466” (Marine Drugs, 2020).

Biological target: Rv1466 (Mycobacterium tuberculosis, UniProt O53157)
Assay: […]; bound species is […] Da (half of the disulfide dimer)
Assay type: binding

Sequence of Rv1466 (O53157 1-115 limits assumed): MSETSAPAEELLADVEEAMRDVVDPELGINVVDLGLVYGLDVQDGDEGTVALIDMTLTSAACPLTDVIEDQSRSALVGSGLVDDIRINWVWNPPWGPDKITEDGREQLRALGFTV

Question: `COc1ccc(-c2nc(N)n(C)c2SSc2c(-c3ccc(OC)cc3)nc(N)n2C)cc1` [polycarpine] was tested. Which Kd did it give?
Answer: 5.3 ± 0.4 µM
